Data: publication PMC11802874, “The hypolipidemic effect of MI-883, the combined CAR agonist/ PXR antagonist, in diet-induced hypercholesterolemia model” (Nature Communications, 2025)
“And” between values parts separate entries of the source, which are not always exact repeats. Identical values can stand only once.

Assays:
PXR LBD = biological target: T1, PXR LBD (Homo sapiens, UniProt O75469); experiment: TR-FRET PXR LBD competitive binding assay (LanthaScreen); settings: recombinant PXR LBD
T1 construct: purchased ThermoFisher Scientific
T1 sequence (O75469 146-433 limits assumed): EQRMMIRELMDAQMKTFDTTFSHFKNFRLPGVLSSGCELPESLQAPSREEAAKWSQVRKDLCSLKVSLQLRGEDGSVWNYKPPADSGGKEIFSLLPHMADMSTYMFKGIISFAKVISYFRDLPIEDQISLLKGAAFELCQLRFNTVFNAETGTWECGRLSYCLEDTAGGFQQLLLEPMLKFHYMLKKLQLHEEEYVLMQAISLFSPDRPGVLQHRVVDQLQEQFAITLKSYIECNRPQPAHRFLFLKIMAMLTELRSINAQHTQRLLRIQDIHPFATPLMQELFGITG
Description: The LanthaScreen TR-FRET PXR Competitive Binding Assay (ThermoFisher Scientific, USA) was performed to evaluate interaction with PXR LBD as we described. The assay measures the ability of an evaluated compound to replace the fluorescent PXR ligand from the receptor. The fluorescence was measured using a Synergy 2 Multi-Mode Microplate Reader (BioTek Winooski, VT, USA) (n = 3).

[1] = Chemical stability (shelf, DMSO stock) and solubility in solvents; type: physicochemical
Text: 1. Biological half-life was investigated. But is MI-883 stable on the shelf? […]
Our medicinal chemistry team analyzed the MI-883 sample that had been stored on the lab bench at […]
compared to the freshly prepared sample (see Figure R1).
In addition, the compound is stable for at least two years in dimethyl sulfoxide (DMSO) as we confirm using published protocols 1,2(see data in Table R1).
Table 1: LC/MS data for MI-883 stability in DMSO solution
Study protocol: Stability of MI-883 stock solution in DMSO after two years at -20°C A 10 mM solution of MI-883 was prepared in DMSO and divided into multiple aliquots in 2 mL cryovials.
The samples were stored at -20°C for two years in a standard laboratory freezer. Mass spectrometric analysis was conducted using LC/MS (Sciex QTRAP 7500). Stability was determined based on three independently prepared 1 µM solutions from stored stock.
DMSO stock solution at -20°C over two years. However, for critical pharmaceutical use, additional studies at different temperatures and under varied conditions (e.g., light exposure, humidity) may be necessary to fully assess long-term stability. […]
We used several computational prediction tools to determine water […]
μg/mL (0.9 μM) and 0.2 μg/mL (0.4 μM). Using QikProp tool (Schrödinger software package), the […]
According to the ADMET Predictor software package […]
predictions align with our observations and confirm the poor water solubility of MI-883, although we […]
The compound is well soluble in methanol and can dissolve in ethanol up to a concentration of 30 mM. […]

[2] = tested on: primary human hepatocytes (PHH); experiment: RT-qPCR mRNA expression in 2D primary human hepatocytes; settings: for CYP2B6 mRNA, RT-qPCR, PHH (Fig. 1g), replicates: ctrl = 1
Description: The cells were cultivated as 2D monolayers according to the manufacturer’s protocol.
RT-qPCR was used to examine gene expression in 2D and 3D PHH, HepaRG cells, or in mouse liver or intestine (ileum) samples as we have described before[60]–[62].

[3] = tested on: humanized PXR-CAR-CYP3A4/3A7 mice, ileum; experiment: RT-qPCR and Western blotting of ileum samples (HFD/HCD studies); type: in vivo, mouse; settings: for Npc1l1 mRNA (RT-qPCR ileum): FigS14a
Text: Specific TaqMan probes were used to analyze ileal samples, following the protocol described in Supplementary Table S3.
Western blotting experiments have been performed in BioRad instruments with BioRad precasted gels and reagents. Antibodies are listed in Supplementary Table S4. Densitometry has been done using ChemiDoc™ MP Imaging System and software (BioRad, Hercules, USA). Data are presented as relative protein expression to control samples. For protein expression quantification, areas in histograms have been calculated and related to a reference protein.

[4] = tested on: 3D primary human hepatocyte spheroids; experiment: RT-qPCR mRNA expression in 3D primary human hepatocyte spheroids; type: cell-based; settings: for CYP2B6 fold change, 3D PHH spheroids, mean of donors / CYP3A4 fold change, 3D PHH spheroids, mean of donors: MI-883 (5 uM)
Description: Briefly, PHHs were cultivated for 6 days to generate compact spheroids by spontaneous self-aggregation and then half of PHH medium was exchanged for FBS-free PHH medium. 3D PHHs were treated with MI-883 (5 μM) commenced from day 8 within a time range of 8–120 h (time points were 8, 12, 24, 48, 72, and 120 h). Conditioned FBS-free PHH medium was changed every 2–3 days of the treatment. […] Data are presented as the mean ± SD of fold change expression gained from 3D spheroids of three different donors. ATP assay has been performed as described.

[5] = tested on: humanized PXR-CAR-CYP3A4/3A7 mice; experiment: Hepatic induction study in humanized PXR-CAR-CYP3A4/3A7 mice (i.p.); type: in vivo, mouse
Text: In the induction experiments, […] was sampled from the gallbladder.

GRα = GRα (Homo sapiens, UniProt P04150); experiment: Luciferase reporter gene assay GRα, HepG2; settings: ligand: Dexamethasone 100 nM
GRα, sequence (P04150 whole entry, the tested form may be a part): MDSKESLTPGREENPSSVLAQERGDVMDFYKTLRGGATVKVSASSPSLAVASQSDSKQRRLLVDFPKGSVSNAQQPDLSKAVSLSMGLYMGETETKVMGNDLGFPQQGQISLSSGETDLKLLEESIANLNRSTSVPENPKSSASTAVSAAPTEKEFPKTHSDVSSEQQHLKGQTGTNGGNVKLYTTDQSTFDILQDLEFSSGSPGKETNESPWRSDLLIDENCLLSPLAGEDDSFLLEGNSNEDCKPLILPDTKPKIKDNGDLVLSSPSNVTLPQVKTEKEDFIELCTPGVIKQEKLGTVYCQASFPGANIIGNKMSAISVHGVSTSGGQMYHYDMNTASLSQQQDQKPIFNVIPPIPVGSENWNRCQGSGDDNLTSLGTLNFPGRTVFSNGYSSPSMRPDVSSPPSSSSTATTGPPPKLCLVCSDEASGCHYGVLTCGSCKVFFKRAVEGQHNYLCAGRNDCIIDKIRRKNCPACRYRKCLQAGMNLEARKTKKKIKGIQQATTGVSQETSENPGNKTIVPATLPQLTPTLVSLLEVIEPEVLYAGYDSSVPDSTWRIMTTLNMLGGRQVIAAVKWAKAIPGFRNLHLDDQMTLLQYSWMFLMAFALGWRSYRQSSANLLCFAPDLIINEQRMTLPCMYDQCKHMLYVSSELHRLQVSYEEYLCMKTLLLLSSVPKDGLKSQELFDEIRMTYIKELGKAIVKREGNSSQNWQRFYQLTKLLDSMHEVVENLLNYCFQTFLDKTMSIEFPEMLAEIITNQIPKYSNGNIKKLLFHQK
Description: (§1) Gal4-LBD constructs of tested nuclear receptors have been used together with pGL4.31[luc2P/GAL4UAS/Hygro] luciferase reporter construct and pRL-TK Renilla expression vector (both from Promega, Hercules, USA) in HepG2 cells transfected with Lipofectamine 2000 or 3000 reagents. For GRα and FXR receptors, full-length expression vectors have been used with pGRE-luc or pFXRE-luc luciferase constructs. For the aryl hydrocarbon receptor (AhR), p1A1-luc construct was used with only pRL-TK vector for transfection normalization. A dual reporter assay (Promega, Hercules, USA) was used to analyze both firefly and Renilla luciferase activities.
(§2) Gal4-LBD constructs of tested nuclear receptors have been used together with pGL5-luc luciferase reporter construct and pRL-TK Renilla expression vector in HepG2 cells transfected with Lipofectamine 2000 or 3000 reagents. For GRα and FXR receptors, full-length expression vectors have been used with pGRE-luc or pFXRE-luc luciferase constructs. For the aryl hydrocarbon receptor (AhR), p1A1-luc construct was used with only pRL-TK vector for transfection normalization. […] Bars represent means±S.D. (n=3).

CAR-LBD = biological target: T2, CAR-LBD (Homo sapiens, UniProt Q14994); experiment: MARCoNI CAR-LBD coregulator interaction array; type: biochemical; settings: 100 μM
T2 construct: HIS-tagged CAR-LBD (ThermoFisher Sciences, Cat. No PV4836); purchased ThermoFisher PV4836
T2 sequence (Q14994 109-348 isoform Q14994-2 limits assumed): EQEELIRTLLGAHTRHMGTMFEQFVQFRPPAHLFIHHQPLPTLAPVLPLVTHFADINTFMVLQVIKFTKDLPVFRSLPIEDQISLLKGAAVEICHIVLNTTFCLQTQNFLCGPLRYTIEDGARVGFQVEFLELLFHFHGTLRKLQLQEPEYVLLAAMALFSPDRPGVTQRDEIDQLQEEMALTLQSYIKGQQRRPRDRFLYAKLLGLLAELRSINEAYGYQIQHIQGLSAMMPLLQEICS
Description: The reaction was performed in a fully automated microarray processing and fluorescent imaging platform (PamStation12) at 20 °C for 80 cycles (two cycles per minute). After removal of the unbound CAR-LBD receptor by washing each array with 25 µl Tris-buffered Saline (TBS) buffer, fluorescent images of the PamChip microarrays were obtained using the PamStation12, and then were analyzed for quantification of CAR binding using BioNavigator software (PamGene International B.V.). For data and statistical analysis, BioNavigator was used.
Modulation index (MI) is the log10-transformed relative binding value, which is calculated by the compound’s binding value, relative to the vehicle control (DMSO) binding value.

PPARγ = PPARγ (Homo sapiens, UniProt P37231); experiment: Luciferase reporter gene assay PPARγ, HepG2
PPARγ, sequence (P37231 238-503 limits assumed): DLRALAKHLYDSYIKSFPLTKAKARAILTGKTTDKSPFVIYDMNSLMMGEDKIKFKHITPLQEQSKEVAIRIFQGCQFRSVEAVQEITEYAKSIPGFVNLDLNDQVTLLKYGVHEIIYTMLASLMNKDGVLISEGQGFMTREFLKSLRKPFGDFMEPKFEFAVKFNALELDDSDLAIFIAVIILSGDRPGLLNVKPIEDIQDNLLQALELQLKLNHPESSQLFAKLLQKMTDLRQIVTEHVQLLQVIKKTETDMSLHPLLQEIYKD
Description: The luciferase reporter gene assays for FXR, LXRα, LXRβ, THα, GRα, PPARα, PPARδ/β, PPARγ, AhR, VD, ERα, ERβ and mouse Car are described in our recent paper[19]
as §1, §2

[6] = MI-883 1 μM, 24 h, one value per donor
[7] = single agent 5 μM: MI-883, CITCO (5 μM) alone
[8] = FigS14b, ileum, individual animals, relative to vehicle
[9] = single agents i.p.: Rif 3×5 mg/kg, CITCO 10 mg/kg two doses, MI-883 10 mg/kg 3 days

## NC(=O)c1cc(Cn2cc(-c3c(-c4ccc(Cl)cc4)nc4cc(F)ccn34)nn2)ccc1Cl [MI-883, 2-chloro-5-((4-(2-(4-chlorophenyl)-7-fluoroimidazo[1,2-a]pyridin-3-yl)-1H-1,2,3-triazol-1-yl)methyl)benzamide]
PXR LBD
  IC50: 100 ± 20 nM
[1]
  solubility in methanol: well soluble
[1]; 2 year at -20°C in DMSO
  LC/MS concentration of 1 µM solution from DMSO stock: 1.007 µM
[1]; 6 months, HPLC/MS
  decomposition on the lab bench at room temperature: no significant decomposition
[1]; not experimentally determined
  water solubility: low water solubility
[1]; time 0
  LC/MS concentration of 1 µM solution from DMSO stock: 1.012 µM
[2]; 1 mM
  CYP2B6 mRNA, RT-qPCR, PHH (Fig. 1g), replicates: 6.40 and 7.90 and 6.20
[2]; 5mM
  CYP2B6 mRNA, RT-qPCR, PHH (Fig. 1g), replicates: 11.50 and 14.10 and 10.70
[2]; MI-883 1 μM + CITCO (5 μM)
  CYP2B6 mRNA in PHH 2 donors (Fig. 3c): 18.7857 and 11.1982
  CYP3A4 mRNA in PHH 2 donors (Fig. 3c): 1.145 and 0.8997
[2]; MI-883 1 μM + Rif (10 μM)
  CYP2B6 mRNA in PHH 2 donors (Fig. 3c): 16.0019 and 18.4588
[2]; [6]
  CYP2B6 mRNA in PHH 2 donors (Fig. 3c): 9.7833 and 10.0129
  CYP3A4 mRNA in PHH 2 donors (Fig. 3c): 1.152 and 1.035
[2]; MI-883 5 μM + CITCO (5 μM)
  CYP2B6 mRNA in PHH 2 donors (Fig. 3c): 4.985 and 8.159
[2]; MI-883 5 μM + Rif (10 μM)
  CYP2B6 mRNA in PHH 2 donors (Fig. 3c): 9.78 and 14.5843
[2]; MI-883 10 μM + CITCO (5 μM)
  CYP2B6 mRNA in PHH 2 donors (Fig. 3c): 1.856 and 2.089
  CYP3A4 mRNA in PHH 2 donors (Fig. 3c): 0.35 and 0.4582
[2]; MI-883 10 μM + Rif (10 μM)
  CYP2B6 mRNA in PHH 2 donors (Fig. 3c): 2.674 and 5.134
  CYP3A4 mRNA in PHH 2 donors (Fig. 3c): 2.14 and 3.421
[2]; [7]
  CYP2B6 mRNA in PHH 2 donors (Fig. 3c): 17.2158 and 12.1241
  CYP3A4 mRNA in PHH 2 donors (Fig. 3c): 0.6604 and 0.7133
[2]; single agent 10 μM: MI-883, Rif (10 μM) alone
  CYP3A4 mRNA in PHH 2 donors (Fig. 3c): 0.3215 and 0.4561
[3]; HCD, ileum, individual animals, relative to vehicle
  Npc1l1 mRNA (RT-qPCR ileum): 0.6886 and 0.6208 and 0.503 and 1.313 and 0.759 and 0.8325
[3]; HFD, ileum, individual animals, relative to vehicle
  Npc1l1 mRNA (RT-qPCR ileum): 1.357 and 1.364 and 0.9665 and 1.432
[3]; [8]
  Abcg5 mRNA (RT-qPCR ileum): 1.01 and 0.5455 and 0.4999 and 1.367 and 0.6847 and 1.339
  Abcg8 mRNA (RT-qPCR ileum): 0.9573 and 0.7781 and 0.4243 and 1.303 and 0.6152 and 1.193
[3]; FigS14c, HCD, ileum, individual animals, relative to vehicle
  Fgf15 mRNA (RT-qPCR ileum): 0.6669 and 0.9092 and 0.1811 and 0.1054 and 2.113 and 1.33
[3]; FigS14c, HFD, ileum, individual animals, relative to vehicle
  Fgf15 mRNA (RT-qPCR ileum): 0.03638 and 0.6965 and 4.34 and 0.01802
[3]; FigS14c, ileum, individual animals, relative to vehicle
  Shp mRNA (RT-qPCR ileum): 1.017 and 0.2256 and 0.2775 and 0.6923 and 3.416 and 0.8457
[3]; HFD study
  Asbt protein in the mouse ileum: significantly decreased
[3]; HFD study, relative to control
  ileum Cyp2b6 i, individual animals: 4.346 and 14.7968 and 1.588 and 2.908 and 3.922 and 0.8524
  ileum Mrp4 i, individual animals: 0.275 and 0.7792 and 1.874 and 1.502 and 1.969 and 1.209
  ileum Slc10a2 i, individual animals: 0.08727 and 0.1129 and 0.7704 and 0.8835 and 0.4948
  ileum Slc51a i, individual animals: 0.2127 and 0.5386 and 0.8471 and 0.8796 and 0.7946 and 0.7965
  ileum Slc51b i, individual animals: 0.7174 and 1.595 and 0.9945 and 0.7427 and 0.4728 and 0.5989
[3]; Supplementary Fig. 14
  ileal Npc1l1 and Abcg5/8: did not observe any regulation
  ileal Shp and Fgf15 mRNA levels: not affected
[4]; 72 h
  proliferative biomarkers MDM2, PCNA, FOXM1 in 3D human hepatocyte spheroid: no significant effects
  CYP2B6 fold change, 3D PHH spheroids, mean of donors: 8.2
  CYP3A4 fold change, 3D PHH spheroids, mean of donors: 0.8
[4]; 8 h
  CYP2B6 fold change, 3D PHH spheroids, mean of donors: 1.9
  CYP3A4 fold change, 3D PHH spheroids, mean of donors: 0.9
[4]; 12 h
  CYP2B6 fold change, 3D PHH spheroids, mean of donors: 3.0
  CYP3A4 fold change, 3D PHH spheroids, mean of donors: 0.7
[4]; 24 h
  CYP2B6 fold change, 3D PHH spheroids, mean of donors: 5.1
  CYP3A4 fold change, 3D PHH spheroids, mean of donors: 0.8
[4]; 48 h
  CYP2B6 fold change, 3D PHH spheroids, mean of donors: 8.0
  CYP3A4 fold change, 3D PHH spheroids, mean of donors: 1.0
[4]; 120 h
  CYP2B6 fold change, 3D PHH spheroids, mean of donors: 6.7
  CYP3A4 fold change, 3D PHH spheroids, mean of donors: 0.7
[5]; MI-883 10 mg/kg i.p. 3 days, not significant
  fold mRNA induction CYP3A4 in livers of humanized PXR-CAR-CYP3A mice: 1.9 fold
[5]; Rif + MI-883 combination i.p.
  hepatic CYP3A4 mRNA, hPXR/hCAR/CYP3A4/7 mice (Fig. 3e), individual animals: 15.1375 and 21.1204 and 7.333 and 13.3527
  hepatic Cyp2b10 mRNA, hPXR/hCAR/CYP3A4/7 mice (Fig. 3e), individual animals: 37.4609 and 22.8189 and 29.2533 and 22.0407
[5]; [9]
  hepatic CYP3A4 mRNA, hPXR/hCAR/CYP3A4/7 mice (Fig. 3e), individual animals: 2.527 and 2.124 and 1.135
  hepatic Cyp2b10 mRNA, hPXR/hCAR/CYP3A4/7 mice (Fig. 3e), individual animals: 5.955 and 3.722 and 12.2143
[5]; single dose of 5 mg/kg in oral gavage
  Cyp2b10 mRNA in the liver, preliminary studies: significant induction
GRα
  NRs assays: GRa (relative to ctrl, replicates): 0.97 (2×) and 1.03
CAR-LBD
  CAR-coregulator interaction profile: attracts several coactivators, including NCOA1, NCOA2, and NCOA3 proteins
PPARγ
  NRs assays: PPARy (relative to ctrl, replicates): 0.61 and 0.89 and 1.05
